Reference: patent publication US5480971A, “Peralkylated oligopeptide mixtures” (Houghten Pharmaceuticals, Inc., priority 1994, dated 1996)
pIC50: −log10 of the molar value. Values after ≈ are worked out from the molar mass of the structure shown. Square brackets hold non-standard residues; d marks the D form. Ends that are not written are not given here. Peptide text beside a SMILES is read from it. * marks the point of attachment. X1 = C[N+](C)(C)[C@@H](Cc1ccccc1)C(=O)*; X2 = CC(C)C[C@@H](C(=O)*)[N+](C)(C)C; NMeF = CN[C@@H](Cc1ccccc1)C(=O)O; NMeI = CC[C@H](C)[C@H](NC)C(=O)O

How the values were obtained:
[1] = test system: Staphylococcus aureus (ATCC 29213); assay: microbe, parasite or virus in culture; conditions: for MIC: Staphylococcus aureus, ATCC29213, read-out: MIC Value; for MIC Value: Table 4, minimum concentration needed to inhibit about 100 percent bacterial growth; for S. aureus MIC: no change in OD620 between time 0 and 21 hours; for S. aureus IC50: Example 8, individual peptides
Description: Concentrations of those 5X permethylated peptide mixtures that inhibited cellular growth by 50 percent (IC50) values were determined.
This culture was reinoculated and incubated at 37° C. to reach the exponential phase of bacterial growth; i.e., a final bacterial suspension containing about 10^5 to 5×10^5 colony-forming units (CFU)/ml. The concentration of cells was established by plating 100 μl of different dilutions of the culture solution (e.g., 10^-2, 10^-3 and 10^-4) onto solid agar plates. Following an overnight (about 18 hours) incubation at 37° C., the CFU thus formed were counted on each agar plate.
96-Well tissue culture plates were utilized, with eight wells per plate containing only medium as control blanks, whereas eight other wells contained medium plus cells as a positive growth control. These controls were used to detect possible medium contamination and to provide a measure of uninhibited growth of the microorganisms.
For determination of IC50 values (concentrations necessary to inhibit 50 percent growth of bacteria), peralkylated oligopeptide sets were added to the bacterial suspension at concentrations noted before. The plates were incubated overnight (about 18 hours) at 37° C., and the optical density (OD) determined at 620 nm after different times of incubation. IC50 values were then determined from the OD data.
Assays using S. aureus were carried out as described before. […] To initiate the exponential phase of bacterial growth prior to the assay, a sample of bacteria grown overnight (about 18 hours) at 37° C. in cation-adjusted Mueller Hinton broth (CAMM, for E. coli and S. aureus--Becton Dickinson Microbiology Systems, Cockeysville, Md.), or Brain Heart Infusion broth (BHI, for S. sanguis), was reinoculated in a 2X broth and incubated at 37° C. MRSA was grown at 35° C. in cation-adjusted MH broth in a similar manner. Prior to the assay, two colonies of newly grown C. albicans culture were inoculated in 5ml of phosphate buffer saline (PBS-35mM phosphate buffer, 0.15M NaCl-pH 7.0), and diluted in yeast medium broth. The bacteria and yeast suspensions were adjusted turbidimetrically so that a final concentration of 10^5 to 5×10^5 colony-forming units (CFU)/ml was used in all assays.
The plates were then incubated overnight at 37° C. […] The concentration necessary to inhibit 50 percent bacterial growth (IC50) was then calculated using the software program […] (ISI, San Diego, Calif.). […] In a similar manner, the plates containing C. albicans suspension were incubated for 48 hours at 30° C.

[2] = test system: Streptococcus sangus ATCC 10566; assay: Assays against S. sanguis (growth inhibition); type: cell-based, Streptococcus sanguis; conditions: for S. sanguis IC50 / S. sanguis MIC: Table 6
Description: The permethylated amino acid and peptides were screened against S. aureus and Streptoccus sanguis, as described below, and IC50 and MIC (minimum inhibitory concentration; minimum concentration needed to inhibit about 100 percent bacterial growth) values were determined. […]
(§1) Assays using S. aureus were carried out as described before. Methicillin-resistant Staphylococcus aureus (MRSA) ATCC 33591, Streptococcus sangus ATCC 10566, Escherichia coli ATCC 25922 and Candida albicans ATCC 10231 were used in the bioassays (ATCC, Rockville, Md.). To initiate the exponential phase of bacterial growth prior to the assay, a sample of bacteria grown overnight (about 18 hours) at 37° C. in cation-adjusted Mueller Hinton broth (CAMM, for E. coli and S. aureus--Becton Dickinson Microbiology Systems, Cockeysville, Md.), or Brain Heart Infusion broth (BHI, for S. sanguis), was reinoculated in a 2X broth and incubated at 37° C. MRSA was grown at 35° C. in cation-adjusted MH broth in a similar manner. Prior to the assay, two colonies of newly grown C. albicans culture were inoculated in 5ml of phosphate buffer saline (PBS-35mM phosphate buffer, 0.15M NaCl-pH 7.0), and diluted in yeast medium broth. The bacteria and yeast suspensions were adjusted turbidimetrically so that a final concentration of 10^5 to 5×10^5 colony-forming units (CFU)/ml was used in all assays.
(§2) The assays were carried out in 96-well tissue culture plates (Costar, Pleasanton, Calif.) as described in Blondelie et al., Biochemistry, 31:12688-12694 (1992), incorporated herein by reference. In brief, the bacterial suspension was added to an equal volume of the mixture of permeythylated compounds diluted in H2 O at concentrations derived from serial two-fold dilutions varying from 2500 μg/ml to 1 μg/ml. The plates were then incubated overnight at 37° C. The relative percent growth found for each compound (or mixture of compounds) was then determined by the optical density at 620 nm (OD620) using a Titertek Multiskan Plus apparatus (Flow Laboratories, McLean, Va.). The concentration necessary to inhibit 50 percent bacterial growth (IC50) was then calculated using the software program […] (ISI, San Diego, Calif.). […] In a similar manner, the plates containing C. albicans suspension were incubated for 48 hours at 30° C.

[3] = test system: human red blood cells (RBC's); assay: Hemolytic activity on human red blood cells; type: cell-based; conditions: 0.25 percent RBC suspension, one hour at 37° C.
Description: Hemolytic activities of the peptides were determined using human red blood cells (RBC's). The assays were carried out in 96-well tissue culture plates against a 0.25 percent RBC suspension as described in Blondelie et al., Biochim. Biophys. Acta, 1202:331-336 (1993), incorporated herein by reference. Briefly, individual permethylated peptides or peptide mixtures were added to the RBC solution at concentrations derived from serial two-fold dilutions varying from […]. Following a one hour incubation at 37° C., the plates were centrifuged at 2800 rpm for 5 minutes. The supernatant was separated from the pellet and its OD measured at 414 nm. Triton (1 percent) and PBS were used as 100 percent and 0 percent hemolysis controls, respectively.

[4] = Merck Index, 10th ed.; cited from earlier work
[5] = test system: Methicillin-resistant Staphylococcus aureus (MRSA) ATCC 33591; assay: Antimicrobial activity against MRSA (growth inhibition); type: cell-based; conditions: for MRSA MIC: no change in OD620 between time 0 and 21 hours
Description: as §1, §2

`CC[C@H]1OC(=O)[C@H](C)[C@@H](O[C@H]2C[C@@](C)(OC)[C@@H](O)[C@H](C)O2)[C@H](C)[C@@H](O[C@@H]2O[C@H](C)C[C@H](N(C)C)[C@H]2O)[C@](C)(O)C[C@@H](C)C(=O)[C@H](C)[C@@H](O)[C@]1(C)O` [Erythromycin, reference compound] showed an MIC [1] of 0.5 µM (≈ 0.367 µg/mL).
Work on `Cc1onc(-c2ccccc2)c1C(=O)N[C@@H]1C(=O)N2[C@@H]1SC(C)(C)[C@@H]2C(=O)O` [Oxacillin, reference compound] yielded an MIC [1] of 0.125 µM (≈ 0.0502 µg/mL).
For `CNC(=O)[C@H](Cc1ccccc1)[N+](C)(C)C` [PerA-F, permethylated Phe N-methylamide], the “MIC Value” [1] was over 500 µM, the “MIC Value” ([2]; Table 5) was over 500 µM and the pIC50 ([2]; Table 5, average results) was under 3.30.
For `CNC(=O)[C@H](Cc1ccccc1)N(C)C(=O)[C@H](Cc1ccccc1)N(C)C(=O)[C@H](Cc1ccccc1)N(C)C(=O)[C@H](Cc1ccccc1)N(C)C(=O)[C@H](Cc1ccccc1)N(C)C(=O)[C@H](Cc1ccccc1)[N+](C)(C)C` [PerA-FFFFFF, PerM-PhePhePhePhePhePhe] (X1-[NMeF][NMeF][NMeF][NMeF][NMeF]-NHMe), the “S. aureus MIC” value ([1]; listed as permethylated FFFFFF-NH2) was “lower than 15 μg/ml” and the “% hemolysis at 350 μg/ml” value [3] was 16%.
For `CC[C@H](C)[C@@H](C(=O)N(C)[C@@H](Cc1ccccc1)C(=O)N(C)[C@@H](Cc1ccccc1)C(=O)N(C)[C@@H](Cc1ccccc1)C(=O)NC)N(C)C(=O)[C@H](Cc1ccccc1)N(C)C(=O)[C@H](Cc1ccccc1)[N+](C)(C)C` [PerM-FFIFFF, PerM-PhePheIlePhePhePhe] (X1-[NMeF][NMeI][NMeF][NMeF][NMeF]-NHMe), the “S. aureus MIC” value ([1]; listed as permethylated FFIFFF-NH2) was “lower than 15 μg/ml” and the “% hemolysis at 350 μg/ml” value [3] was 0%.
With `CNC(=O)[C@H](Cc1ccccc1)N(C)C(=O)[C@H](Cc1ccccc1)N(C)C(=O)[C@H](Cc1ccccc1)N(C)C(=O)[C@H](Cc1ccccc1)N(C)C(=O)[C@H](Cc1ccccc1)N(C)C(=O)[C@H](CC(C)C)[N+](C)(C)C` [PerM-LFFFFF, PerM-LeuPhePhePhePhePhe] (X2-[NMeF][NMeF][NMeF][NMeF][NMeF]-NHMe) the “% hemolysis at 350 μg/ml” value [3] was 10%.
For `CC[C@H](C)[C@@H](C(=O)N(C)[C@@H](Cc1ccccc1)C(=O)N(C)[C@@H](Cc1ccccc1)C(=O)N(C)[C@@H](Cc1ccccc1)C(=O)NC)N(C)C(=O)[C@H](Cc1ccccc1)N(C)C(=O)[C@H](CC(C)C)[N+](C)(C)C` [PerM-LFIFFF, PerM-LeuPheIlePhePhePhe] (X2-[NMeF][NMeI][NMeF][NMeF][NMeF]-NHMe), the “S. aureus MIC” value ([1]; listed as permethylated LFIFFF-NH2) was “lower than 15 μg/ml” and the “% hemolysis at 350 μg/ml” value [3] was 12%.
For `CC(=O)[C@H]1CC[C@H]2[C@@H]3CCC4=CC(=O)CC[C@]4(C)[C@H]3CC[C@]12C` [progesterone], the solubility in water [4] is given as “insoluble in water”.
For `C[N+](C)(C)[C@@H](Cc1ccccc1)C(=O)N[C@@H](Cc1ccccc1)C(=O)N[C@@H](Cc1ccccc1)C(=O)N[C@@H](Cc1ccccc1)C(=O)N[C@@H](Cc1ccccc1)C(=O)N[C@@H](Cc1ccccc1)C(N)=O` [reference compound] (X1-FFFFF-NH2), the “S. aureus IC50” value [1] was over 250 µg/mL.
In the case of `C[C@]12CC[C@H]3[C@@H](CCC4=CC(=O)CC[C@@]43C)[C@@H]1CC[C@@H]2O` [testosterone], the solubility in water [4] is listed as “insoluble in water”.
In the case of “N-acetyl hexaPhe amide [N-Ac-hexaPhe, reference compound]”, the “MIC Value” [1] was over 500 µM.
For “PerM-LeuPheIlePheHisPhe (LFIFHF; also: permethylated) [PerM-LFIFHF]”, the “S. aureus IC50” value [1] was 12 µg/mL, the “S. aureus MIC” value [1] was 21 to 31 µg/mL and the “S. sanguis IC50” value [2] was 13 µg/mL. For the same compound, the “S. sanguis MIC” value [2] was 20 to 40 µg/mL, the “MRSA IC50” value [5] was 14 µg/mL and the “MRSA MIC” value [5] was 15 to 21 µg/mL. The “% hemolysis at 350 μg/ml” value [3] was 7%.
For “PerM-LeuPheIlePhePheHis (LFIFFH; also: permethylated) [PerM-LFIFFH]”, the “S. aureus IC50” value [1] was 12 µg/mL, the “S. aureus MIC” value [1] was 21 to 31 µg/mL and the “S. sanguis IC50” value [2] was 19 µg/mL. The “S. sanguis MIC” value [2] was 30 to 40 µg/mL, the “MRSA IC50” value [5] was 20 µg/mL and the “MRSA MIC” value [5] was 25 to 42 µg/mL. The “% hemolysis at 350 μg/ml” value [3] was 1%.
In the case of “PerM-LeuPhePhePheHisPhe (LFFFHF; also: permethylated) [PerM-LFFFHF]”, the “S. aureus IC50” value [1] was 12 µg/mL, the “S. aureus MIC” value [1] was 21 to 31 µg/mL and the “S. sanguis IC50” value [2] was 19 µg/mL. For the same compound, the “S. sanguis MIC” value [2] was 30 to 40 µg/mL, the “MRSA IC50” value [5] was 13 µg/mL and the “MRSA MIC” value [5] was 15 to 21 µg/mL. For the same compound, the “% hemolysis at 350 μg/ml” value [3] was 4%.
For “PerM-LeuPhePhePhePheHis (LFFFFH; also: permethylated) [PerM-LFFFFH]”, the “S. aureus IC50” value [1] was 13 µg/mL, the “S. aureus MIC” value [1] was 21 to 42 µg/mL and the “S. sanguis IC50” value [2] was 22 µg/mL. For the same compound, the “S. sanguis MIC” value [2] was 30 to 40 µg/mL, the “MRSA IC50” value [5] was 16 µg/mL and the “MRSA MIC” value [5] was 21 to 42 µg/mL. For the same compound, the “% hemolysis at 350 μg/ml” value [3] was 3%.
In the case of “PerM-PhePheIlePhePheHis (FFIFFH; also: permethylated) [PerM-FFIFFH]”, the “S. aureus IC50” value [1] was 14 µg/mL, the “S. aureus MIC” value [1] was 31 to 42 µg/mL and the “S. sanguis IC50” value [2] was 18 µg/mL. For the same compound, the “S. sanguis MIC” value [2] was 30 to 40 µg/mL, the “MRSA IC50” value [5] was 19 µg/mL and the “MRSA MIC” value [5] was 21 to 42 µg/mL. For the same compound, the “% hemolysis at 350 μg/ml” value [3] was 0%.
In the case of “PerM-PhePhePhePheHisPhe (FFFFHF; also: permethylated) [PerM-FFFFHF]”, the “S. aureus IC50” value [1] was 11 µg/mL, the “S. aureus MIC” value [1] was 15 to 21 µg/mL and the “S. sanguis IC50” value [2] was 19 µg/mL. The “S. sanguis MIC” value [2] was 30 to 40 µg/mL, the “MRSA IC50” value [5] was 18 µg/mL and the “MRSA MIC” value [5] was 21 to 42 µg/mL. The “% hemolysis at 350 μg/ml” value [3] was 3%.
